From patent US20250213700A1, “COMPOUNDS, COMPOSITIONS, AND METHODS FOR CELL-SPECIFIC PHARMACOLOGY” (Duke University, priority 2022, published 2025)

Legend:
[1] = test system: endogenous GABAARs; assay: all-optical assay of GABAAR antagonism in primary neuronal culture; format: cell-based, rat
Procedure: Cultured neuronal assays: Preparation of hippocampal cultures: Mixed glial and neuronal cultures were prepared from the hippocampus of postnatal day 0 to 1 Sprague-Dawley rat pups. Separate pools of dissociated cells were transfected via electroporation (LONZA, V4SP-3096) with plasmid constructs, and depending on assay directives, either plated individually or mixed with a different pool of electroporated cells after a 10 min recovery period. Cells were cultured on coverslips (Deckglaser) pre-treated with high molecular weight poly-D-lysine (Sigma, P7405; 0.05 mg/mL) in 24-well plates and maintained in NbActiv4 (BrainBits, Nb4-500) at 37 C, 5% CO2. Media was changed by half at DIV3 or 4 and then weekly thereafter; experiments were performed between DIV16 to DIV18.
Gabazine: Dissociated neurons were electroporated with constructs and cultured for 2 weeks. The assay was performed in the same BASE solution as described above, but with the addition of synaptic blockers CPP (NMDAR antagonist; Tocris) and NBQX (AMPAR antagonist; Abcam, ab120046) to isolate GABAR activity, and a small amount of GABA (GABAR agonist; Sigma) to ensure GABAR activity (=GABAR-BASE). […] Instead, a high dose of regular gabazine was used to completely silence any cells that may not have had realized full antagonism by the end of the assay. Imaging alignment, proof-reading and analysis were performed in a similar fashion to the AMPAR assay using MatLab.
It was next focused on blocking the GABAAR, a ubiquitous transducer of synaptic inhibition. […] The structure-activity literature of gabazine, a selective GABAAR antagonist, was explored. The core gabazine pharmacophore includes of a 3-amino, 6-phenoxy-pyridazine ring, with GABA embedded in the 2-position (2 butyric acid). Based on historical, low-potency predecessors of gabazine, a longer GABA moiety (2 pentanoic acid), and methyl substituents (e.g., 5-CH3) were explored (FIG. 2F). For each variant, the 6-phenoxy moiety was modified to make a gabazinealkyne module, which was click-conjugated to DART.2. Several variants were made, including gabazine.1^DART.2 (2 butyric acid, 5-H), gabazine.5DART.2 (2 pentanoic acid, 5-H), and gabazine.7DART.2 (2 pentanoic acid, 5-CH3). An all-optical assay of endogenous GABAARs in primary neuronal culture was then developed. […] Excitatory synapses were blocked, such that opto-stimulation with ChR2 became the only source of neural excitation.

[2] = test system: GABAAR; assay: VTA slice, evoked GABAAR IPSCs on midbrain dopamine neurons; format: cell-based, mouse; conditions: 300 nM (FIG. 4E)
Source text: FIG. 4A-4F show the DART.2 platform can enable safe use of epileptogenic pharmaceuticals in awake behaving animals. (FIG. 4A) Validation of gabazine.1^DART.2 in cerebellar slice. Top: voltage-clamp schematic. Bottom: tonic GABAAR in granule cells expressing ^+HTP or ^ddHTP. […] Data are mean±SEM, cells normalized to baseline. (FIG. 4B) In vivo delivery of gabazine.1^DART.2 to cerebellar granule cells. Top right: schematic of experimental approach, GCaMP6f granule-cell activity obtained in the absence of sensory stimuli. Top left: example field of view, GCaMP6f signal averaged across trials. Bottom: example calcium traces (ΔF/F) in an awake ^+HTP mouse before (baseline) and after (1 μL of 1 μM gabazine.1^DART.2) infusion. (FIG. 4C) In vivo, 1 μL of 1 μM gabazine.1^DART.2 to ^+HTP mice. Color indicates ΔF/F, each row is one cell before (left) and after (right) gabazine.1^DART.2 infusion. Full dataset from 6 mice (n=1707 cells, p<0.0001, paired t-test, before vs after infusion). (FIG. 4D) In vivo, 1 μL of 1 μM gabazine.1^DART.2 to ^ddHTP mice. Format as in panel C. Full dataset from 4 mice (n=1084 cells, p=0.76, paired t-test, before vs after infusion). (FIG. 4E) Validation of gabazine.7^DART.2 in VTA slice. Top: evoked-IPSC configuration. […] Data are mean±SEM, cells normalized to baseline. Control experiments confirmed the GABAAR specificity of the manipulation. […] Data are mean±SEM, normalized to baseline speed of each animal.
Electrophysiology. Preparation of Brain slices: Mice (8-10 weeks) were injected AAV10 HaloTag™-dTomato to striatum or ventral tegmental area (VTA). After 3-5 weeks, mice were deeply anesthetized with isoflurane and euthanized by decapitation. Coronal brain slices ([…]) containing striatum or VTA were prepared by standard methods using a Vibratome (Leica, VT 1200S), in ice-cold high sucrose cutting solution containing (in mM) 220 sucrose, 3 KCl, 1.25 NaH2PO4, 25 NaHCO3, 12 MgSO4.7H2O, 10 glucose, and 0.2 CaCl2) bubbled with 95% O2 and 5% CO2. The slices were placed into modified artificial cerebrospinal fluid (aCSF) containing (in mM): 120 NaCl, 3.3 KCl, 1.23 NaH2PO4, 1 MgSO4, 2 CaCl2), 25 NaHCO3, and 10 glucose at pH 7.3, previously saturated with 95% O2 and 5% CO2. For recovery, the slices were incubated at 33° C. for 40-60 min in the bubbled ACSF solution and then allowed to cool to room temperature (22-24° C.) until the recordings were initiated.
Whole-cell patch-clamp recording: The brain slices or retinas were perfused with bubbled aCSF at 29-30° C. with a 2 ml/min flow rate. Recordings were made by whole cell patch recording techniques using a Multiclamp 700B amplifier (Molecular Devices, Axon Instruments Inc., Union City, CA). The signals were filtered at 10 KHz and acquired using Digitate 1440A and pClamp 10.7 (Molecular Devices). […]

## COc1cc(CCCCl)ccc1CCOCCNC(=O)c1ccc(CNC(=O)CCOCCOCCOCCOCCOCCOCCOCCOCCOCCOCCOCCOCCOCCOCCOCCOCCOCCOCCOCCOCCOCCOCCOCCOCCOCCOCCOCCOCCOCCOCCOCCOCCOCCOCCOCCOCCn2cc(COCCOCCOCCOCCOCCOCCOCCCCCCOc3ccc(-c4nn(CCCCC(=O)O)c(=N)cc4C)cc3)nn2)cc1 [gabazine.7DART.2]
[1]
  increase in DW vs gabazine.1DART.2: ~6 fold
  increase in HTL50 vs gabazine.1DART.2: ~3 fold
  increase in Rx50 vs gabazine.1DART.2: ~20 fold
[1]; ddHTP vs +HTP cells, 15 min, 15 uM GABA
  DW (t=15 m): 3,000
[2]
  evoked GABAAR current (IPSCs), +HTP neurons: pronounced block of evoked GABAAR current
  evoked GABAAR current (IPSCs), ddHTP cells: no measurable effect on ddHTP cells
[2]; listed as gabazine.7^DART.2
  evoked GABAAR current (IPSCs), +HTP neurons: nearly complete block of evoked IPSCs
  evoked GABAAR current (IPSCs), ddHTP cells: no impact on ^ddHTP cells
